From patent US5102871A, “Nutrient composition” (Kyowa Hakko Kogyo Co., Ltd., priority 1989, dated 1992)
One block for each compound: values may come before it. Bridge positions count the residues as written; N and C are the ends. Peptide text beside a SMILES is read from it. I, II: the chains in the order shown.

Tests used:
Solubility in water = type: physicochemical; conditions: pH 6.5, 25° C.
Description: The solubility of γ-Glu-Cys-Cys and (γ-Glu-Cys)2 was compared with that of cystine and known cystine-containing peptides.

[1] = molecular target: T1, γ-glutamyltransferase prepared from swine kidney (Sus scrofa, UniProt P20735); test: Hydrolysis by γ-glutamyltransferase; type: biochemical; conditions: 5 mM peptide, Tris-hydrochloride buffer pH 7, 37° C., 120 minutes
T1 construct: γ-glutamyltransferase prepared from swine kidney; from tissue; host or cells: swine kidney
T1 sequence (P20735 1-379 limits assumed): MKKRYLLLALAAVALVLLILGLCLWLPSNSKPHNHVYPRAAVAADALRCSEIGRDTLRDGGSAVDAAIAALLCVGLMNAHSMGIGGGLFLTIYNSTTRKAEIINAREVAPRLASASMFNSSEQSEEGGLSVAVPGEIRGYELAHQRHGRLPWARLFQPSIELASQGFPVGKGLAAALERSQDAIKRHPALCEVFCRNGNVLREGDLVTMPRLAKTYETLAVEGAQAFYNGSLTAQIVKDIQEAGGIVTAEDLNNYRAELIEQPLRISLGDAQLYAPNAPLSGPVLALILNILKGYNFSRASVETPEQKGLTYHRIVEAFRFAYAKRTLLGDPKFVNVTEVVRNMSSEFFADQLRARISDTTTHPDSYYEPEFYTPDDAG
T1 sequence (P20735 380-568 limits assumed): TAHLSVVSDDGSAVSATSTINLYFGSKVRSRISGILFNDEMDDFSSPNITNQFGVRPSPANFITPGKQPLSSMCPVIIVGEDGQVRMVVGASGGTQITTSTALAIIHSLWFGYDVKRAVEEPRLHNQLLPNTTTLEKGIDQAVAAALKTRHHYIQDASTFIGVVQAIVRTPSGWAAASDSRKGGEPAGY
Procedure: It was thus recognized that there was a difference between these peptides with respect to utilization in vivo.
A peptide was dissolved in Tris-hydrochloride buffer solution (pH 7) in a concentration of 5 mM and γ-glutamyltransferase prepared from swine kidney was added to the solution. After reaction at 37° C. for 120 minutes, the amount of the remaining peptide was determined.

[2] = In vitro hydrolysis in human plasma; type: in vitro ADME; conditions: 37° C., 30 minutes; for remaining at 0.5 h, 2.18 mM: read-out: Residual amount in plasma (%)
Procedure: It was thus recognized that there was a clear difference between these peptides with respect to utilization in vivo.
To 100 μl of plasma collected and prepared from human was added 10 μl of a 24 mM solution of a peptide in physiological saline. After reaction at 37° C. for 30 minutes, the amount of the remaining peptide was determined.

[3] = In vitro hydrolysis in mouse plasma; type: in vitro ADME, C3H/He mouse; conditions: 37° C., 30 minutes; for remaining at 0.5 h, 2.46 mM: male, C3H/He mouse plasma, mean of five mice, read-out: Residual amount in plasma (%)
Procedure: To 50 μl of plasma collected and prepared from C3H/He mouse (6 weeks of age, male, weighing 22 g) was added 5 μl of a 27.1 mM solution of a peptide in physiological saline, followed by reaction at 37° C. for 30 minutes.

[4] = Uptake by mouse kidney after tail vein administration; type: in vivo, C3H/He mice; conditions: 250 μmoles/kg tail vein, mean (SEM on next line)
Procedure: Uptake of γ-Glu-Cys-Cys and (γ-Glu-Cys)2 by mouse kidney was compared with that of (Ala-Cys)2 according to the test method described below.
Physiological saline solutions of γ-Glu-Cys-Cys, (γ-Glu-Cys)2 and (Ala-Cys)2 were administered respectively to groups of C3H/He mice (6 weeks of age, male, weighing 22 g) through the tail vein in a dose of 250 μmoles/kg body weight, and the kidney was excised 1, 5 and 20 minutes after the administration, followed by determination of glutamic acid, alanine and cystine in the kidney.

[5] = Stability in solution on heat treatment and on standing; type: physicochemical; conditions: 10 mM
[6] = administered subcutaneously to mice; Anderson and Meister 1983; cited from earlier work
[7] = 25° C.; background statement; cited from earlier work
[8] = Stability on heating in jelly-like nutrient preparation (Example 3); type: physicochemical; conditions: 100° C. for 30 minutes, Example 3 composition

- Solubility in 1000 ml of water (Solubility in water): > 50 g
- Hydrolysis by γ-glutamyltransferase [1]: not hydrolyzed
- remaining at 0.5 h, 2.18 mM [2]: 26%
- remaining at 0.5 h, 2.46 mM [3]: 0%
- Ala (alanine) in kidney ([4]; 0 min after administration): 2.33 μmole/g wet weight of kidney
- Ala (alanine) in kidney ([4]; 1 min after administration): 2.87 μmole/g wet weight of kidney
- Ala (alanine) in kidney ([4]; 5 min after administration): 2.59 μmole/g wet weight of kidney
- Ala (alanine) in kidney ([4]; 20 min after administration): 2.16 μmole/g wet weight of kidney
SMILES: C[C@H](N)C(=O)N[C@@H](CSSC[C@H](NC(=O)[C@H](C)N)C(=O)O)C(=O)O [(Ala-Cys)2, bis-α-L-alanyl-L-cystine, reference compound] (I: H-Ala-Cys-OH / II: H-Ala-Cys-OH; disulfide I:2-II:2)

- Solubility in 1000 ml of water (Solubility in water): > 50 g
- Hydrolysis by γ-glutamyltransferase [1]: not hydrolyzed
- remaining at 0.5 h, 2.18 mM [2]: 30%
SMILES: N[C@@H](CC(=O)O)C(=O)N[C@@H](CSSC[C@H](NC(=O)[C@@H](N)CC(=O)O)C(=O)O)C(=O)O [(Asp-Cys)2, N,N'-bis-α-aspartyl-L-cystine] (I: H-Asp-Cys-OH / II: H-Asp-Cys-OH; disulfide I:2-II:2)

- Solubility in 1000 ml of water (Solubility in water): 8.1 g
SMILES: C[C@H](NC(=O)[C@@H](N)CSSC[C@H](N)C(=O)N[C@@H](C)C(=O)O)C(=O)O [(Cys-Ala)2, L-cysteinyl-bis-L-alanine] (I: H-Cys-Ala-OH / II: H-Cys-Ala-OH; disulfide I:1-II:1)

- Solubility in 1000 ml of water (Solubility in water): > 50 g
- remaining at 0.5 h, 2.18 mM [2]: 35%
SMILES: NCC(=O)N[C@@H](CSSC[C@H](NC(=O)CN)C(=O)O)C(=O)O [(Gly-Cys)2, bis-glycyl-L-cystine, reference compound] (I: H-Gly-Cys-OH / II: H-Gly-Cys-OH; disulfide I:2-II:2)

- Solubility in 1000 ml of water (Solubility in water): > 70 g
- Hydrolysis by γ-glutamyltransferase [1]: almost completely hydrolyzed
- remaining at 0.5 h, 2.18 mM [2]: 85%
- remaining at 0.5 h, 2.46 mM [3]: 84%
- Glu (glutamic acid) in kidney ([4]; 0 min after administration): 5.54 μmole/g wet weight of kidney
- Glu (glutamic acid) in kidney ([4]; 1 min after administration): 14.82 μmole/g wet weight of kidney
- Glu (glutamic acid) in kidney ([4]; 5 min after administration): 22.5 μmole/g wet weight of kidney
- Glu (glutamic acid) in kidney ([4]; 20 min after administration): 18.14 μmole/g wet weight of kidney
- Decomposition on standing ([5]; pH 6.5, 40° C. for 60 days): not decomposed
- Decomposition by heat treatment ([5]; pH 6.5, 110° C. for 20 minutes): hardly decomposed
SMILES: N[C@@H](CCC(=O)N[C@@H](CSSC[C@H](NC(=O)CC[C@H](N)C(=O)O)C(=O)O)C(=O)O)C(=O)O [(γ-Glu-Cys)2, L-glutamyl-L-cysteine disulfide]
- Hydrolysis in human plasma [2]: hydrolyzed in plasma only with difficulty
- Hydrolysis in mouse plasma [3]: hydrolyzed in plasma only with difficulty
- Utilization in the synthesis of kidney glutathione [6]: can be utilized in the synthesis of kidney glutathione

- Solubility in 1000 ml of water (Solubility in water): > 50 g
SMILES: N[C@@H](CS)C(=O)NCCCC[C@H](NC(=O)[C@@H](N)CS)C(=O)O [Cys-Lys(Cys), N^2 -cysteinyl-N^6 -L-cysteinyl-L-lysine] (H-Cys-Lys(Cys)-OH)

- Solubility in 1000 ml of water (Solubility in water): 0.1 g
SMILES: N[C@@H](CSSC[C@H](N)C(=O)O)C(=O)O [Cystine, L-cystine]
- solubility in water [7]: less than 0.11 g/l

- Solubility in 1000 ml of water (Solubility in water): > 70 g
- remaining at 0.5 h, 2.18 mM [2]: 67%
- remaining at 0.5 h, 2.46 mM [3]: 53%
- Glu (glutamic acid) in kidney ([4]; 0 min after administration): 5.54 μmole/g wet weight of kidney
- Glu (glutamic acid) in kidney ([4]; 1 min after administration): 13.09 μmole/g wet weight of kidney
- Glu (glutamic acid) in kidney ([4]; 5 min after administration): 20.32 μmole/g wet weight of kidney
- Glu (glutamic acid) in kidney ([4]; 20 min after administration): 15.1 μmole/g wet weight of kidney
- Stability under heating of the jelly-like preparation [8]: stably maintained
SMILES: N[C@@H](CCC(=O)N[C@@H](CSSC[C@H](N)C(=O)O)C(=O)O)C(=O)O [γ-Glu-Cys-Cys]
- Hydrolysis in human plasma [2]: hydrolyzed in plasma only with difficulty
- Hydrolysis in mouse plasma [3]: hydrolyzed in plasma only with difficulty
